Patent publication US11834466B2, “Benzoxaborole compounds and formulations thereof” (5Metis, Inc., priority 2017, dated 2023)

Legend:
Type in all cases: in vivo
[1] = test system: wheat/SNB (Parastangaspora nodorum); assay: Greenhouse biological efficacy on wheat/SNB; details: BAG8 0.25 lb/acre at 20 gal/acre, inoculum 24 hours post spray, Example 26, Table 16, untreated control 6.750
Procedure: (§1) The BAG8 SC formulations described in Example 10 (BAG8 20% SC) and Example 12 (BAG8 40% SC) and selected BAG8 SC-tank mix formulations described in Example 23 were tested under greenhouse conditions. Data was obtained for soybean/white mold (Sclerotinia sclerotiorum), wheat/SNB (Parastangaspora nodorum), and cucubit/downy mildew. For each experiment, the BAG8 was applied at a rate of 0.25 lb/acre and at a spray rate of 20 gal/acre. Various BAG8 EC formulations, the BAG8 WP formulation described in Example 18, and selected BAG8 SC-tank mix formulations described in Example 23 were tested under greenhouse conditions. Data was obtained for soybean/white mold (Sclerotinia sclerotiorum), wheat/SNB (Parastangaspora nodorum), and cucurbit/downy mildew. For each experiment, the BAG8 was applied at a rate of 0.25 lb/acre at a spray rate of 20 gal/acre (40 mL of spray solution prepared). All inoculum was applied 24 hours post BAG8 spray. Unformulated BAG8 was applied to the plants by dissolving BAG8 in a 30% acetone-70% water solution.

[2] = test system: soybean/white mold (Sclerotinia sclerotiorum); assay: Greenhouse biological efficacy on soybean/white mold; details: BAG8 0.25 lb/acre at 20 gal/acre, inoculum 24 hours post spray, Example 29, Table 19, untreated control 7.333
Procedure: as §1

cucurbit/downy mildew = assay: Greenhouse biological efficacy on cucurbit/downy mildew; details: BAG8 0.25 lb/acre at 20 gal/acre, inoculum 24 hours post spray
Procedure: as §1

OB1OCc2cc(Cl)ccc21 [BAG8, 5-chlorobenzo[c][1,2]oxaborol-1(3H)-ol]
Mean Disease Severity [1]: 5.750 | Mean Disease Severity [2]: 5.333 | Mean Disease Severity (cucurbit/downy mildew; Cucumber/Downy Mildew, Example 29, Table 20, untreated control 7.417): 5.833 | Mean Disease Severity (cucurbit/downy mildew; Curcurbit/Downy Mildew, Example 27, Table 17, untreated control 8.364): 2.000 | Mean Disease Severity (cucurbit/downy mildew; Curcurbit/Downy Mildew, Example 28, Table 18, untreated control 6.667): 5.833
